tested on: genetically sound-sensitive mice (audiogenic seizures); assay: audiogenic seizures test in sound-susceptible mice; type: in vivo; details: Mus musculus, ip, 1 h; dose producing 50% protection against clonic convulsions relative to control; intraperitoneally 60 minutes before induction of audiogenic seizures (90 dB, 10–20 kHz, 30 seconds); Probit Analysis; read-out: Clonic Convulsion (ED50)
Text: The potent activity of the compounds of formula (I) or (II), or their pharmaceutically acceptable salts, as anticonvulsants was evidenced by audiogenic seizures test induced in sound-susceptible mice. These examples illustrate the invention without in any way limiting its scope. The objective of the following pharmacological test is to evaluate the anticonvulsant potency of a compound in sound-susceptible mice, a genetic animal model with reflex seizures. In this model of primary generalised epilepsy, seizures are evoked without electrical or chemical stimulation and the seizure types are, at least in part, similar in their clinical phenomenology to seizures occurring in man (Löscher W. & Schmidt D., Epilepsy Res. (1998), 2, p. 145–181; Buchhalter J. R., Epilepsia (1993), 34, S31–S41). The results obtained with the tested compounds of formula (I) and (II) show a strong pharmacological effect (see Table 4).
In order to study the activity of the compounds of formula (I) and (II) including the (S) and (R) forms of ethyl 4-{[1-(aminocarbonyl)propyl]amino}butanoate, as anticonvulsant, the applicant performed out a series of experiments based on the audiogenic seizures test in mice.
The objective of the following pharmacological test is to evaluate the anticonvulsant potency of a compound in sound-susceptible mice, a genetic animal model with reflex seizures. In this model of primary generalised epilepsy, seizures are evoked without electrical or chemical stimulation and the seizure types are, at least in part, similar in their clinical phenomenology to seizures occurring in man (Löscher W. and Schmidt D., Epilepsy Res. (1998), 2, p. 145–181; Buchhalter J. R., Epilepsia (1993), 34, S31–S41).
Male or female genetically sound-sensitive mice (14–28 g; N=10), derived from a DBA (Dilute Brown Agouti) strain originally selected by Dr. Lehmann of the Laboratory of Acoustic Physiology (Paris) and bred in the UCB Pharma Sector husbandry unit since 1978, were used. The experimental design consisted of several groups, one group receiving the vehicle control and the other groups different doses of the test-compound. The compounds were administered intraperitoneally 60 minutes before the induction of audiogenic seizures.
For testing, the animals were placed in small cages, one mouse per cage, in a sound-attenuated chamber. After a period of orientation of 30 seconds, the acoustic stimulus (90 dB, 10–20 kHz) was delivered for 30 seconds via loud speakers positioned above each cage; During this interval, the mice were observed and the presence of the 3 phases of the seizure activity, namely wild running, clonic and tonic convulsions, was recorded. The proportion of mice protected against wild running, clonic and tonic convulsions, respectively, was calculated.
For active compounds, an ED50 value, i.e. the dose producing 50% protection relative to the control group, together with 95% confidence limits, was calculated using a Probit Analysis (SAS/STATR Software, Version 6.09, PROBIT procedure) of the proportions of protected mice for each of the 3 phases of the seizure activity.

| Structure (SMILES) | ED50 [µmol/kg] |
| --- | --- |
| CCOC(=O)CCCNC(CC)C(N)=O (racemic) [C, ethyl 4-{[1-(aminocarbonyl)propyl]amino}butanoate] | 320 |
| CC[C@H](NCCCC(=O)OCC(C)C)C(N)=O [M, isobutyl 4-{[(1S)-1-(aminocarbonyl)propyl]amino}butanoate] | 360 |
| CC[C@H](NCCCC(=O)SC(C)C)C(N)=O [W, S-isopropyl 4-{[(1S)-1-(aminocarbonyl)propyl]amino}butanethioate] | 540 |
| CC[C@H](NCCCC(=O)OC)C(N)=O [F, methyl 4-{[(1S)-1-(aminocarbonyl)propyl]amino}butanoate] | 160 |
| CC[C@H](NCCCC(=O)OC(C)C)C(N)=O [G, isopropyl 4-{[(1S)-1-(aminocarbonyl)propyl]amino}butanoate] | 150 |
| CCCC(CCC)COC(=O)CCCN[C@@H](CC)C(N)=O [O, 2-propylpentyl 4-{[(1S)-1-(aminocarbonyl)propyl]amino}butanoate] | 120 |
| CC[C@H](NCCCC(=O)OCCC12CC3CC(CC(C3)C1)C2)C(N)=O [I, 2-(1-adamantyl)ethyl 4-{[(1S)-1-(aminocarbonyl)propyl]amino}butanoate] | 130 |
| CC[C@H](NCCCC(=O)OCc1ccccc1)C(N)=O [Compound N, benzyl 4-{[(1S)-1-(aminocarbonyl)propyl]amino)butanoate] | 220 |
| CCCCCCCCOC(=O)CCCN[C@@H](CC)C(N)=O [L, octyl 4-{[(1S)-1-(aminocarbonyl)propyl]amino}butanoate] | 160 |
| CC[C@H](NCCCC(=O)OC1CCCC1)C(N)=O [J, cyclopentyl 4-{[(1S)-1-(aminocarbonyl)propyl]amino}butanoate] | 340 |
| CCCCOC(=O)CCCN[C@@H](CC)C(N)=O [K, butyl 4-{[(1S)-1-(aminocarbonyl)propyl]amino}butanoate] | 1000 |
| CCOC(=O)CCCN[C@@H](CC)C(N)=O [D, ethyl 4-{[(1S)-1-(aminocarbonyl)propyl]amino}butanoate] | 68 |
| CCCOC(=O)CCCN[C@@H](CC)C(N)=O [P, propyl 4-{[(1S)-1-(aminocarbonyl)propyl]amino}butanoate] | 200 |
| CCC(NCCCC(=O)OC(C)(C)C)C(N)=O [H, tertiobutyl 4-{[(1S)-1-(aminocarbonyl)propyl]amino}butanoate] | 520 |

Reference: US7112612B2, “N-alkylated GABA compounds, processes for their preparation and their use as medicaments” (UCB S.A., priority 2000, dated 2006)
